From US7547690B2, “Compounds for the treatment of Hepatitis C” (Bristol-Myers Squibb Company, priority 2007, dated 2009)
Read-outs that look alike come from different tables or passages of the source.

Columns and labels:
HCV NS5B = target: T1, HCV NS5B (Hepatitis C virus genotype 1b, UniProt Q9WMX2); experiment: HCV NS5B RdRp enzyme assay (standard / modified); type: biochemical; details: HCV RdRp genotype 1b; standard or modified assay not specified; read-out: IC50
T1 construct: The protein was expressed with an 18 amino acid C-terminal truncation to enhance the solubility; made in house; host or cells: E. coli BL21(DE3)
T1 sequence (Q9WMX2 2420-2992): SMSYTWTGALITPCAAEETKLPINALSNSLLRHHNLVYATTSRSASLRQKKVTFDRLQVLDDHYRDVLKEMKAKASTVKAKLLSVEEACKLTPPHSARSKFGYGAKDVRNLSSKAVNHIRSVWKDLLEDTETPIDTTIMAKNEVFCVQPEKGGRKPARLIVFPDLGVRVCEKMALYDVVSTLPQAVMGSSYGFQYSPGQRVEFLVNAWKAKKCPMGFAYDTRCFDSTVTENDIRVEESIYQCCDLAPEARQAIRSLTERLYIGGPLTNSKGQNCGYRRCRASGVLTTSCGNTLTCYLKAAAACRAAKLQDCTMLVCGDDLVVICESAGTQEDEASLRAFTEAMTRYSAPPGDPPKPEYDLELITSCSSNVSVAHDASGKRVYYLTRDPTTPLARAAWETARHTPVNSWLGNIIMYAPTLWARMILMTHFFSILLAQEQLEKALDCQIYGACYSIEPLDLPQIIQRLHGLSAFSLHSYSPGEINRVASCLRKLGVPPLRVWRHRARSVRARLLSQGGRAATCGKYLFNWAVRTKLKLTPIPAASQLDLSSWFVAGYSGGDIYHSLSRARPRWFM
How it was run: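 Genotype 1b NS5B, 18-aa C-terminal truncation, E. coli-expressed; polyA template with biotin-oligo-dT12 primer, 3H-UTP (0.29 μM UTP), pH 7.5 Hepes, 2% DMSO, 30 °C, SPA read. Standard: 28 nM enzyme, 6 nM template, 180 nM primer, 60 min. Modified: 1.75 nM enzyme, 0.36 nM template, 20 nM bead-precaptured primer, 4 h; IC50 from seven concentrations, four-parameter fit.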

HCV replicon cells = experiment: HCV replicon FRET / luciferase assay; type: cell-based; details: 50% reduction in FRET or luciferase activity in HCV replicon cells, read-out: EC50
How it was run: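 HCV replicon cells (with or without Renilla luciferase reporter) incubated with titrated compounds at 37° C; cytotoxicity read by Alamar blue. Replicon activity then read by NS3 cleavage of EDANS/DABCYL FRET peptide (20 μM final, 340/490 nm kinetic) or by luciferase; background from highest control-inhibitor wells subtracted; EC50 = concentration giving 50% signal reduction.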

Row | SMILES | IC50 (HCV NS5B) [nM] | EC50 (HCV replicon cells; Hepatitis C virus) [nM] | EC50 (HCV replicon cells) [nM]
1 | COc1ccc2c(c1)C1CC1(C(=O)N1C[C@H]3C[C@@H]1CN3CC(C)C)Cn1c-2c(C2CCCCC2)c2ccc(C(=O)NS(N)(=O)=O)cc21 (some centres unmarked) | 2.4 to 500 | 2.4 to 500 | –
2 | COc1ccc2c(c1)C1CC1(C(=O)N1[C@@H]3CNC[C@H]1C3)Cn1c-2c(C2CCCCC2)c2ccc(C(=O)NS(=O)(=O)N(C)C)cc21 (some centres unmarked) | 2.4 to 500 | 2.4 to 500 | –
3 | COc1ccc2c(c1)C1CC1(C(=O)N1C3COC[C@@H]1CN(C)C3)Cn1c-2c(C2CCCCC2)c2ccc(C(=O)NS(=O)(=O)C3CCCC3)cc21 (some centres unmarked) | 2.4 to 500 | 2.4 to 500 | –
4 | COc1ccc2c(c1)C1CC1(C(=O)N1CCN3CCC1CC3)Cn1c-2c(C2CCCCC2)c2ccc(C(=O)NS(=O)(=O)C3CC3)cc21 (centres unmarked) [drawing 71] | 2.4 to 500 | – | 2.4 to 500
5 | COc1ccc2c(c1)C1CC1(C(=O)N1C3COC[C@@H]1CN(C)C3)Cn1c-2c(C2CCCCC2)c2ccc(C(=O)NS(=O)(=O)C(C)C)cc21 (some centres unmarked) | 2.4 to 500 | 2.4 to 500 | –
6 | COc1ccc2c(c1)C1CC1(C(=O)N1C[C@]3(C)CN(C)C[C@](C)(C1)C3O)Cn1c-2c(C2CCCCC2)c2ccc(C(=O)NS(=O)(=O)N(C)C)cc21 (some centres unmarked) | 2.4 to 500 | 2.4 to 500 | –
7 | CCC(C)S(=O)(=O)NC(=O)c1ccc2c(C3CCCCC3)c3n(c2c1)CC1(C(=O)N2C4CC2CN(Cc2ccccc2)C4)CC1c1cc(OC)ccc1-3 (centres unmarked) | 2.4 to 500 | 2.4 to 500 | –
